Measurements: publication PMC7442133, “Reduced treatment frequencies with bumped kinase inhibitor 1369 are effective against porcine cystoisosporosis” (International Journal for Parasitology: Drugs and Drug …, 2020)
Where “and” joins values, the source holds several entries; their conditions need not be identical. Identical values can stand only once. Entries after “also recorded” stand apart in the source; their conditions may differ.

Assays:
[1] = Fecal drug kinetics: BKI concentrations in pooled feces by LC-MS/MS; type: in vivo, piglets
Protocol: Additionally, to determine exposure to BKI 1369 and its metabolites, BKI 1318 and BKI 1817, pooled fecal samples per group were collected before treatment (−24 h), 2, 24 and 48 h after treatment and at the end of the study (SD 29; experiment I). Approximately 1 g of feces was soaked overnight in 3 ml phosphate buffered saline (PBS, pH 7.4). The following day, 12 ml of acetonitrile containing 100 μM propanolol as an internal standard was added and the mixture was thoroughly vortexed and centrifuged at 1000×g for 30 min. Clear supernatant was then transferred to Eppendorf tubes and concentrated in a miVac® Duo Concentrator (SP Scientific, Pennsylvania, USA) at 35 °C. Control/blank samples spiked with known amounts of target analyte were processed in tandem to provide a standard curve. The concentrated samples were shipped to the University of Washington and were stored at −20 °C until analysis by liquid chromatography-tandem mass spectrometry (LC-MS/MS) to determine fecal pharmacokinetics. All LC-MS/MS analyses were carried out on a Waters Acquity UPLC coupled with a Xevo TQS Micro and analyzed using MassLynx software (Waters Corporation, Milford, MA, USA). Extraction and LC-MS/MS conditions are described in detail in the Supplementary File S1.
Tissue and feces from vehicle control treated piglets were used as blanks or standards. Calibration curves for BKI 1369, BKI 1318, and BKI 1817 were prepared by adding 2 μL BKI in dimethylsulfoxide (DMSO) to 18 μL tissue or feces controls to generate nominal concentrations of 0.004, 0.008, 0.02, 0.04, 0.08, 0.2, 0.4, 0.8, 2, 5, 10, and 20 μM. Calibration curves were generated separately for each tissue type and feces.
5 μL of tissue homogenate curves and samples were added to tubes that contained 95 μL of 80:20 acetonitrile: water. As an internal standard, propranolol was added to each sample to a final concentration of 20 nM. Samples were dried to completion using a miVac Duo Concentrator (SP Scientific, Pennsylvania, USA) at 35 °C. Sample processing for feces was similar but utilized a slightly different process to concentrate the sample as explained in the methods. Dried Samples were sealed and shipped to the University of Washington for LC-MS/MS analysis.

[2] = tested on: C. suis (strain Wien-I); assay: Fecal score and diarrhea of experimentally infected suckling piglets; type: in vivo, Cystoisospora suis
[3] = tested on: C. suis (strain Wien-I); assay: Oocyst excretion of experimentally infected suckling piglets (autofluorescence, modified McMaster); type: in vivo, Cystoisospora suis; settings: for Start of oocyst excretion (study day): controls started SD 8
[4] = Post-treatment observations for adverse events; type: in vivo, piglets
Protocol: For both experiments, post-treatment observations for any adverse events such as swelling/bleeding of the iron injection site, inability to stand, walk, suckle or other abnormal behavior, including dyspnoea, vomiting, limping, lateral recumbency, signs of pain, distress or neurological alterations ([Oldham, 1985]), were conducted under blinded conditions by a veterinarian at 2 h, 24 h and 48 h after treatment. In addition, all piglets were observed daily during the course of the studies to ensure good health, and any condition that required veterinary intervention was recorded and addressed.

[5] = Exp I group A: 1 × 20 mg/kg BW oral, SD 3 (0 dpi)
[6] = Exp I group B: 1 × 20 mg/kg BW oral, SD 5 (2 dpi)
[7] = Exp I group C: 2 × 20 mg/kg BW oral, SD 5 & SD 7 (2 & 4 dpi)
[8] = Exp II group W: 1 × 20 mg/kg BW oral, SD 5 (2 dpi)
[9] = Exp II group X: 1 × 10 mg/kg BW oral, SD 5 (2 dpi)
[10] = Exp II group Y: 1 × 5 mg/kg BW oral, SD 5 (2 dpi)
[11] = single treatment 20 mg/kg BW 2 dpi
[12] = single treatment 20 mg/kg BW on the day of infection

Compound: CCOc1ccc2cc(-c3nn(CC4CCN(C)CC4)c4ncnc(N)c34)ccc2n1 [BKI 1369]
- Concentration in pooled fecal samples ([1]; Group A (20 mg BKI 1369/kg BW; 0 dpi), SD 2, −24 h (before treatment)): 0.0 µM
- Concentration in pooled fecal samples ([1]; Group A (20 mg BKI 1369/kg BW; 0 dpi), SD 3, 2 h post first-dose): 0.8 µM
- Concentration in pooled fecal samples ([1]; Group A (20 mg BKI 1369/kg BW; 0 dpi), SD 4, 24 h post first-dose): 8.1 µM
- Concentration in pooled fecal samples ([1]; Group A (20 mg BKI 1369/kg BW; 0 dpi), SD 5, 48 h post first-dose): 5.5 µM
- Concentration in pooled fecal samples ([1]; Group A (20 mg BKI 1369/kg BW; 0 dpi), SD 29, 624 h post first-dose): 0.0 µM
- Cmax ([1]; Group A: single treatment 20 mg BKI 1369/kg on SD 3, pooled feces): 8.1 µM
- Fecal Tmax ([1]; Group A: single treatment 20 mg BKI 1369/kg on SD 3, pooled feces, post dose): 24 h
- Concentration in pooled fecal samples ([1]; Group B (20 mg BKI 1369/kg BW; 2 dpi), SD 4, −24 h (before treatment)): 0.0 µM
- Concentration in pooled fecal samples ([1]; Group B (20 mg BKI 1369/kg BW; 2 dpi), SD 5, 2 h post first-dose): 0.0 µM
- Concentration in pooled fecal samples ([1]; Group B (20 mg BKI 1369/kg BW; 2 dpi), SD 6, 24 h post first-dose): 0.8 µM
- Concentration in pooled fecal samples ([1]; Group B (20 mg BKI 1369/kg BW; 2 dpi), SD 7, 48 h post first-dose): 3.0 µM
- Concentration in pooled fecal samples ([1]; Group B (20 mg BKI 1369/kg BW; 2 dpi), SD 29, 576 h post first-dose): 0.0 µM
- Cmax ([1]; Group B: single treatment 20 mg BKI 1369/kg on SD 5, pooled feces): 3 µM
- Fecal Tmax ([1]; Group B: single treatment 20 mg BKI 1369/kg on SD 5, pooled feces, post-dose): 48 h
- Concentration in pooled fecal samples ([1]; Group C (20 mg BKI 1369/kg BW; 2 and 4 dpi), SD 4, −24 h (before treatment)): 0.0 µM
- Concentration in pooled fecal samples ([1]; Group C (20 mg BKI 1369/kg BW; 2 and 4 dpi), SD 5, 2 h post first-dose): 0.0 µM
- Concentration in pooled fecal samples ([1]; Group C (20 mg BKI 1369/kg BW; 2 and 4 dpi), SD 6, 24 h post first-dose): 4.5 µM
- Concentration in pooled fecal samples ([1]; Group C (20 mg BKI 1369/kg BW; 2 and 4 dpi), SD 7, 48/2 h post 2nd dose): 37.0 µM
- Concentration in pooled fecal samples ([1]; Group C (20 mg BKI 1369/kg BW; 2 and 4 dpi), SD 8, 72/24 h post 2nd dose): 19.7 µM
- Concentration in pooled fecal samples ([1]; Group C (20 mg BKI 1369/kg BW; 2 and 4 dpi), SD 9, 96/48 h post 2nd dose): 29.2 µM
- Concentration in pooled fecal samples ([1]; Group C (20 mg BKI 1369/kg BW; 2 and 4 dpi), SD 29, 576/528 h post 2nd dose): 0.0 µM
- Fecal Tmax ([1]; Group C: 20 mg BKI 1369/kg on SD 5 and SD 7, pooled feces, post first-dose): 48 h
- Time of fecal peak, in general ([1]; all groups, metabolite levels continued to rise beyond 48 h): 24 to 48 h
- % piglets with diarrhea at least once [2, 5]: 60%
- Number of diarrhea days ± SD [2, 5]: 1.4 ± 1.71 days
- % piglets with diarrhea at least once [2, 6]: 18.18%
- Number of diarrhea days ± SD [2, 6]: 0.27 ± 0.65 days
- % piglets with diarrhea at least once [2, 7]: 27.27%
- Number of diarrhea days ± SD [2, 7]: 0.45 ± 0.93 days
- Mean FS and diarrhea days compared to control piglets (in words) ([2]; Exp I: single dose 20 mg/kg BW at 2 dpi): significantly lower mean FS and fewer diarrhea days
- Effect on diarrhea (in words) ([2]; Exp I: single dose of 20 mg/kg BW on the day of infection): failed to reduce occurrence of diarrhea
- Mean FS and diarrhea days compared to control piglets (in words) ([2]; Exp I: two doses 20 mg/kg BW at 2 and 4 dpi): significantly lower mean FS and fewer diarrhea days
- % piglets with diarrhea at least once [2, 8]: 10%
- Number of diarrhea days ± SD [2, 8]: 0.2 ± 0.63 days
- % piglets with diarrhea at least once [2, 9]: 40%
- Number of diarrhea days ± SD [2, 9]: 0.5 ± 0.70 days
- % piglets with diarrhea at least once [2, 10]: 77.80%
- Number of diarrhea days ± SD [2, 10]: 2.6 ± 1.88 days
- Effect on diarrhea (in words) ([2]; Exp II: 5 mg/kg BW at 2 dpi): completely failed to control diarrhea
- Effect on diarrhea (in words) ([2]; Exp II: 10 mg/kg BW at 2 dpi): effectively suppressed diarrhea
- Effect on diarrhea (in words) ([2]; Exp II: 20 mg/kg BW at 2 dpi): effectively suppressed diarrhea
- Number of diarrhea days compared to control piglets (in words) ([2]; irrespective of time points and frequencies of treatment): reduced number of diarrhea days
- Start of oocyst excretion (study day) ([3]; Exp I group A: 1 × 20 mg/kg BW day of infection): 11 SD
- Mean AUC for OpG [3, 5]: 4861.8
- Number of excretion days ± SD (mean duration of oocyst excretion) ([3]; Exp I group A: 1 × 20 mg/kg BW oral, SD 3 (0 dpi), 20 mg/kg): 1 ± 1.6 days and 1 ± 1.56 days
- Piglets that excreted oocysts ([3]; Exp I group A: 1 × 20 mg/kg BW, day of infection): 50%
- Number of piglets that excreted oocysts ([3]; Exp I group B: 1 × 20 mg/kg BW 2 dpi, 11 piglets): two
- Start of oocyst excretion (study day) ([3]; Exp I group B: 1 × 20 mg/kg BW 2 dpi): 16 SD
- Mean AUC for OpG [3, 6]: 333
- Number of excretion days ± SD [3, 6]: 0.45 ± 1.03 days
- Oocyst excretion (in words) ([3]; Exp I group C: two doses of 20 mg/kg BW at 2 and 4 dpi, 20 mg/kg): completely suppressed oocyst excretion
- Number of piglets that excreted oocysts ([3]; Exp II group W: 1 × 20 mg/kg BW 2 dpi, 10 piglets, excreted only once on SD 16): one
- Mean AUC for OpG [3, 8]: 99.9
- Number of excretion days ± SD [3, 8]: 0.1 ± 0.32 days
- Oocyst excretion (in words) ([3]; Exp II group W: single dose of 20 mg/kg BW 2 dpi): effectively suppressed
- Mean AUC for OpG [3, 9]: 20129.85
- Number of excretion days ± SD (mean duration of oocyst excretion) ([3]; Exp II group X: 1 × 10 mg/kg BW oral, SD 5 (2 dpi), 10 mg/kg): 1.3 ± 2.7 days and 1.3 ± 2.75 days
- Piglets that excreted oocysts ([3]; Exp II group X: 1 × 10 mg/kg BW, 2 dpi): 50%
- Number of piglets that excreted oocysts ([3]; Exp II group X: single dose of 10 mg/kg BW 2 dpi): 5 out of 10
- Mean AUC for OpG [3, 10]: 56610
- Number of excretion days ± SD (mean duration of oocyst excretion) ([3]; Exp II group Y: 1 × 5 mg/kg BW oral, SD 5 (2 dpi), 5 mg/kg): 3.6 ± 1.9 days and 3.6 ± 1.94 days
- Piglets that excreted oocysts ([3]; Exp II group Y: 1 × 5 mg/kg BW, 2 dpi): 90%
- Control of parasitic shedding and diarrhea (in words) ([3]; single application of 5 mg/kg BW 2 dpi): completely failed to control parasitic shedding and diarrhea
- Piglets in which oocyst excretion was suppressed [3, 11]: 82%
- Reduction of quantitative oocyst excretion in those that shed oocysts [3, 11]: 98.4%
- Piglets in which oocyst excretion was suppressed [3, 12]: 50%
- Reduction of quantitative oocyst excretion in those that shed oocysts [3, 12]: 95.2%
- Minimal effective dose against cystoisosporosis ([3]; single treatment 2 dpi, piglets): 10 mg/kg BW
- Treatment-related adverse effects that required veterinary intervention ([4]; 5, 10 or 20 mg/kg BW, one or two oral doses, whole study period): No piglets showed treatment-related adverse effects; also recorded: without any adverse effects
- Visible signs of toxicity, clinically relevant systemic or regional/local responses related to treatment ([4]; treated groups, both experiments): Neither visible signs of toxicity nor clinically relevant systemic or regional/local responses related to treatment were observed
